Source: patent publication US12370161B2, “Composition for treating atopy or pruritus comprising N-acetyl or N-acyl amino acid” (STEMDR INC., priority 2017, dated 2025)

Test system: atopic dermatitis-induced Balb/c mouse
Experiment: SCORAD clinical skin score, DNFB-induced atopic dermatitis in Balb/c mouse
Assay type: in vivo
Parameters: key to Mouse 1 Sum / Mean (of Sum, SCORAD) / Mouse 2 Sum / Mouse 3 Sum: sum of symptom grades, each 0 (none) to 3 (severe)
Settings: DNFB Balb/c; for Mouse 1 Erythema: 0.1% in PBS, 200 μL on back skin daily day 22-28, grade 0-3 (0 no symptom, 1 mild, 2 moderate, 3 severe); for Mouse 1 Abrasion / Mouse 1 Dryness / Mouse 1 Edema / Mouse 1 Eschar / Mouse 1 Lichenification / Mouse 1 Sum / Mouse 2 Abrasion / Mouse 2 Dryness / Mouse 2 Edema / Mouse 2 Erythema / Mouse 2 Eschar / Mouse 2 Lichenification / Mouse 2 Sum / Mouse 3 Abrasion / Mouse 3 Dryness / Mouse 3 Edema / Mouse 3 Erythema / Mouse 3 Eschar / Mouse 3 Lichenification / Mouse 3 Sum / Mean (of Sum, SCORAD): 0.1% topical day 22-28; for Mouse 1 Abrasion / Mouse 1 Dryness / Mouse 1 Edema / Mouse 1 Eschar / Mouse 1 Lichenification / Mouse 2 Abrasion / Mouse 2 Dryness / Mouse 2 Edema / Mouse 2 Erythema / Mouse 2 Eschar / Mouse 2 Lichenification / Mouse 3 Abrasion / Mouse 3 Dryness / Mouse 3 Edema / Mouse 3 Erythema / Mouse 3 Eschar / Mouse 3 Lichenification: grade 0-3; for Mouse 1 Sum / Mouse 2 Sum / Mouse 3 Sum: overall dermatitis score, sum of individual scores; for Mean (of Sum, SCORAD): mean of 3 mice
Experimental: In order to induce atopy-like dermatitis in Balb/c mice, DNFB sensitization was induced by applying 100 μL of 0.35% 2,4-dinitrofluorobenzene (DNFB) (Sigma, USA) in acetone/olive oil (3:1) on the shaved back skin of the mice. Then, dermatitis was induced by applying 100 μL of 0.25% DNFB on days 6, 9, 12, 15, 18 21, 24 and 27 on the shaved back skin. Control mice were treated with a vehicle of the same volume (FIG. 1A).
After dissolving an N-acetyl or N-acylamino acid in phosphate-buffered saline to 0.1%, 200 μL of the solution was applied on the back skin of the mice every day, from day 22 until day 28 for the Balb/c atopic dermatitis model, and from day 15 until day 21 for the Nc/Nga atopic dermatitis model. When the N-acetyl or N-acylamino acid was treated together with DNFB, they were treated with 12-hour intervals in order to avoid direct reaction between the DNFB and the N-acetyl or N-acylamino acid. A non-treated group and a 2,4-dinitrofluorobenzene (DNFB) group were treated with phosphate-buffered saline of the same volume (FIGS. 1A-1B). As the N-acetylamino acid, products purchased from Sigma-Aldrich (USA), MP scientific (USA), TCI (Tokyo Chemical Industry, Japan), Santacruz (USA), etc. were used without purification.
The degree of skin soothing and the severity of atopic dermatitis were evaluated macroscopically according to the previously established SCORAD (SCORing Atopic Dermatitis) method (Oranje et al., 2007). The degree of symptoms such as edema, erythema, eschar, dryness, abrasion, lichenification, etc. was graded from 0 to 3 (0, no symptom; 1, mild; 2, moderate; 3, severe). The overall dermatitis score was determined from the sum of all individual scores (Table 1). The assessment was performed by an investigator who was blind to the grouping of the mice.

Structure (SMILES) | Mouse 1 Erythema | Mouse 1 Abrasion | Mouse 1 Dryness | Mouse 1 Edema | Mouse 1 Eschar | Mouse 1 Lichenification | Mouse 1 Sum | Mouse 2 Abrasion | Mouse 2 Dryness | Mouse 2 Edema | Mouse 2 Erythema | Mouse 2 Eschar | Mouse 2 Lichenification | Mouse 2 Sum | Mouse 3 Abrasion | Mouse 3 Dryness | Mouse 3 Edema | Mouse 3 Erythema | Mouse 3 Eschar | Mouse 3 Lichenification | further results
CC(=O)N[C@@H](CCCCN)C(=O)O [N-acetyl-L-Lysine] | 3 | 2 | 3 | 2 | 2 | 1 | 13 | 2 | 2 | 3 | 3 | 2 | 3 | 15 | 2 | 3 | 2 | 3 | 2 | 2 | Mouse 3 Sum: 14; Mean (of Sum, SCORAD): 14
CC(=O)N[C@@H](CC(N)=O)C(=O)O [N-acetyl-L-asparagine] | 3 | 3 | 3 | 2 | 2 | 2 | 15 | 3 | 2 | 2 | 2 | 3 | 3 | 14 | 2 | 3 | 3 | 3 | 3 | 2 | Mouse 3 Sum: 16; Mean (of Sum, SCORAD): 15
CC(=O)N[C@@H](CC(=O)O)C(=O)O [N-acetyl-L-aspartic acid] | 3 | 2 | 2 | 2 | 2 | 2 | 13 | 2 | 3 | 2 | 3 | 2 | 2 | 14 | 2 | 2 | 2 | 3 | 2 | 1 | Mouse 3 Sum: 12; Mean (of Sum, SCORAD): 13
CC(=O)N[C@@H](CCC(=O)O)C(=O)O [N-acetyl-L-glutamic acid] | 3 | 2 | 2 | 2 | 2 | 3 | 14 | 2 | 3 | 2 | 2 | 2 | 2 | 13 | 2 | 3 | 2 | 1 | 2 | 2 | Mouse 3 Sum: 12; Mean (of Sum, SCORAD): 13
CC(=O)N[C@@H](CCC(N)=O)C(=O)O [N-acetyl-L-glutamine] | 2 | 2 | 2 | 2 | 2 | 3 | 13 | 2 | 2 | 2 | 2 | 2 | 2 | 12 | 2 | 2 | 2 | 2 | 2 | 1 | Mouse 3 Sum: 11; Mean (of Sum, SCORAD): 12
CC(=O)NCC(=O)O [N-acetyl-L-glycine] | 3 | 2 | 2 | 2 | 2 | 3 | 14 | 2 | 3 | 2 | 3 | 2 | 3 | 15 | 2 | 3 | 2 | 3 | 2 | 3 | Mouse 3 Sum: 15; Mean (of Sum, SCORAD): 14.67
CC(=O)N[C@@H](Cc1c[nH]cn1)C(=O)O [N-acetyl-L-histidine] | 3 | 2 | 3 | 2 | 2 | 3 | 15 | 2 | 3 | 2 | 3 | 2 | 3 | 15 | 2 | 3 | 2 | 3 | 2 | 2 | Mouse 3 Sum: 14; Mean (of Sum, SCORAD): 14.67
CC[C@H](C)[C@H](NC(C)=O)C(=O)O [N-acetyl-L-isoleucine] | 3 | 1 | 3 | 2 | 3 | 3 | 15 | 2 | 3 | 2 | 2 | 2 | 3 | 14 | 1 | 3 | 2 | 3 | 2 | 3 | Mouse 3 Sum: 14; Mean (of Sum, SCORAD): 14.33
CC(=O)N[C@@H](CC(C)C)C(=O)O [N-acetyl-L-leucine] | 3 | 2 | 3 | 2 | 2 | 2 | 14 | 2 | 3 | 2 | 3 | 2 | 3 | 15 | 2 | 3 | 2 | 3 | 2 | 1 | Mouse 3 Sum: 13; Mean (of Sum, SCORAD): 14
